Experimental data published in the NIST ThermoML archive (doi:10.1016/j.fluid.2018.07.027).
± gives the expanded uncertainty stated by the source.

Columns and labels:
[1] = refractive index (Na D-line) (dimensionless); xn = mol fraction of the nth substance listed; details: 298.15 K, 101.3 kPa, Liquid, Standard Abbe refractometry
[2] = xn = mol fraction of the nth substance listed; details: 298.15 K, 101.3 kPa, Liquid; for speed of sound: Frequency=3 MHz, Single path-length method; for mass density: Vibrating tube method
[3] = 298.15 K, 101.33 kPa, Liquid; for speed of sound: Single path-length method; for mass density: Vibrating tube method
[4] = refractive index (Na D-line) (dimensionless); details: 298.15 K; 101.33 kPa; Liquid; Standard Abbe refractometry
[5] = Boiling temperature at pressure P; details: 101.3 kPa; Liquid; Ebulliometric method (Recirculating still)

CC(C)CC(C)(C)C [2,2,4-trimethylpentane] + CCCCOCCCC showed a refractive index ([1]; x1 = 1) of 1.38898 ± 0.00033, a speed of sound ([2]; x1 = 1) of 1082.6 ± 1.1 m/s and a mass density ([2]; x1 = 1) of 687.71 ± 0.91 kg/m3.

Compound CC(C)CC(C)(C)C [2,2,4-trimethylpentane] + CCCCO has a refractive index ([1]; x1 = 0.0518) of 1.39663 ± 0.00033, a refractive index ([1]; x1 = 0.1022) of 1.39603 ± 0.00033 and a refractive index ([1]; x1 = 0.1512) of 1.39545 ± 0.00033. For the same compound, the refractive index ([1]; x1 = 0.2028) was 1.39484 ± 0.00033, the refractive index ([1]; x1 = 0.2535) was 1.39426 ± 0.00033 and the refractive index ([1]; x1 = 0.3042) was 1.39372 ± 0.00033. For the same compound, the refractive index ([1]; x1 = 0.3535) was 1.39318 ± 0.00033, the refractive index ([1]; x1 = 0.4049) was 1.39266 ± 0.00033 and the refractive index ([1]; x1 = 0.4534) was 1.39218 ± 0.00033. For the same compound, the refractive index ([1]; x1 = 0.5032) was 1.39173 ± 0.00033, the refractive index ([1]; x1 = 0.5534) was 1.39128 ± 0.00033 and the refractive index ([1]; x1 = 0.6041) was 1.39088 ± 0.00033. The refractive index ([1]; x1 = 0.6558) was 1.3905 ± 0.00033, the refractive index ([1]; x1 = 0.7046) was 1.39016 ± 0.00033 and the refractive index ([1]; x1 = 0.7521) was 1.38988 ± 0.00033. For the same compound, the refractive index ([1]; x1 = 0.8047) was 1.38958 ± 0.00033, the refractive index ([1]; x1 = 0.8521) was 1.38934 ± 0.00033 and the refractive index ([1]; x1 = 0.9005) was 1.38914 ± 0.00033. It also gave a refractive index ([1]; x1 = 0.9502) of 1.38897 ± 0.00033, a refractive index ([1]; x1 = 1) of 1.38898 ± 0.00033 and a speed of sound ([2]; x1 = 0.0518) of 1223.4 ± 1.2 m/s. The speed of sound ([2]; x1 = 0.1022) was 1208.3 ± 1.2 m/s, the speed of sound ([2]; x1 = 0.1512) was 1194.3 ± 1.1 m/s and the speed of sound ([2]; x1 = 0.2028) was 1181.5 ± 1.1 m/s. For the same compound, the speed of sound ([2]; x1 = 0.2535) was 1169.4 ± 1.1 m/s, the speed of sound ([2]; x1 = 0.3042) was 1157.9 ± 1.1 m/s and the speed of sound ([2]; x1 = 0.3535) was 1148.6 ± 1.1 m/s. The speed of sound ([2]; x1 = 0.4049) was 1139.1 ± 1.1 m/s, the speed of sound ([2]; x1 = 0.4534) was 1130.8 ± 1.1 m/s and the speed of sound ([2]; x1 = 0.5032) was 1123.4 ± 1.1 m/s. For the same compound, the speed of sound ([2]; x1 = 0.5534) was 1116.6 ± 1.1 m/s, the speed of sound ([2]; x1 = 0.6041) was 1110.3 ± 1.1 m/s and the speed of sound ([2]; x1 = 0.6558) was 1104.5 ± 1.1 m/s. The speed of sound ([2]; x1 = 0.7046) was 1099.6 ± 1.1 m/s, the speed of sound ([2]; x1 = 0.7521) was 1095.4 ± 1.1 m/s and the speed of sound ([2]; x1 = 0.8047) was 1091.1 ± 1.1 m/s. It also gave a speed of sound ([2]; x1 = 0.8521) of 1087.9 ± 1.1 m/s, a speed of sound ([2]; x1 = 0.9005) of 1085.1 ± 1.1 m/s and a speed of sound ([2]; x1 = 0.9502) of 1082.8 ± 1.1 m/s. The speed of sound ([2]; x1 = 1) was 1082.8 ± 1.1 m/s, the mass density ([2]; x1 = 0.0518) was 795.39 ± 0.93 kg/m3 and the mass density ([2]; x1 = 0.1022) was 785.94 ± 0.93 kg/m3. For the same compound, the mass density ([2]; x1 = 0.1512) was 777.34 ± 0.93 kg/m3, the mass density ([2]; x1 = 0.2028) was 768.9 ± 0.92 kg/m3 and the mass density ([2]; x1 = 0.2535) was 761.12 ± 0.92 kg/m3. It also gave a mass density ([2]; x1 = 0.3042) of 753.81 ± 0.92 kg/m3, a mass density ([2]; x1 = 0.3535) of 747.12 ± 0.92 kg/m3 and a mass density ([2]; x1 = 0.4049) of 740.56 ± 0.92 kg/m3. For the same compound, the mass density ([2]; x1 = 0.4534) was 734.72 ± 0.92 kg/m3, the mass density ([2]; x1 = 0.5032) was 729.09 ± 0.92 kg/m3 and the mass density ([2]; x1 = 0.5534) was 723.73 ± 0.92 kg/m3. The mass density ([2]; x1 = 0.6041) was 718.63 ± 0.92 kg/m3, the mass density ([2]; x1 = 0.6558) was 713.71 ± 0.92 kg/m3 and the mass density ([2]; x1 = 0.7046) was 709.35 ± 0.92 kg/m3. For the same compound, the mass density ([2]; x1 = 0.7521) was 705.31 ± 0.92 kg/m3, the mass density ([2]; x1 = 0.8047) was 701.05 ± 0.92 kg/m3 and the mass density ([2]; x1 = 0.8521) was 697.48 ± 0.92 kg/m3. It also gave a mass density ([2]; x1 = 0.9005) of 694.03 ± 0.92 kg/m3, a mass density ([2]; x1 = 0.9502) of 690.74 ± 0.92 kg/m3 and a mass density ([2]; x1 = 1) of 687.79 ± 0.91 kg/m3.

CCCCO [butan-1-ol] gave a speed of sound [3] of 1240.1 ± 1.1 m/s, a mass density [3] of 805.769 ± 0.91 kg/m3 and a refractive index [4] of 1.39725 ± 0.00033.

With CC(C)CC(C)(C)C [2,2,4-trimethylpentane] the “Boiling temperature at pressure P” value [5] was 99.01 ± 0.05 °C, the speed of sound [3] was 1082.8 ± 1.1 m/s and the mass density [3] was 687.824 ± 0.92 kg/m3. It also gave a refractive index [4] of 1.38898 ± 0.00033.

In the case of CCCCO [butan-1-ol] + CC(C)CC(C)(C)C, the refractive index ([1]; x2 = 0) is reported as 1.39725 ± 0.00033, the speed of sound ([2]; x2 = 0) is reported as 1240.1 ± 1.1 m/s and the mass density ([2]; x2 = 0) is reported as 805.78 ± 0.91 kg/m3.
